Measured values as given in patent publication US6562359B2, “Pest repellent” (Sumitomo Chemical Company, Ltd., priority 1997, dated 2003).

Tests used:
Assay type in all cases: in vivo
[1] = system: mosquitoes (Aedes aegypti); experiment: Test Example 1: mosquito entrance inhibition in treated cup; details: Aedes aegypti females; 0.3 mg/cup on filter paper; counted 10 minutes after setting; disposal warmer lure
Procedure: A lower side part of a plastic cup (base diameter: 10 cm; top opening diameter: 12 cm; height: 7 cm; capacity: about 650 ml) was cut out to form a 2 cm square entrance of mosquitoes. At the center of said cup was placed a twofold disposal warmer (Kiribai New Hand Warmer, 24-hour type, 13.5×10 cm) as a lure for mosquitoes. A 9 cm-diameter filter paper was treated with a 1 ml solution of the test substance diluted with acetone to a predetermined concentration, and after acetone was air dried, said filter paper was attached to the inside of the cover of said cup with a double-side adhesive tape. This cover was fitted on said cup, allowing the test substance to volatilize and diffuse in the cup for one minute.
In a nylon gauze-made cage (50 cm×50 cm×50 cm) holding about 600 mosquitoes (Aedes aegypti) one to 2 weeks old after emergence (sex ratio=ca. 1:1), 2 said cups were placed cater-cornered across the cage, each of said cups being positioned about 10 cm away from the cage corner, to lure the mosquitoes. […] 10 minutes after setting the cups at said positions in the cage, each cup was taken out of the cage and the number of the female insects attracted into the cup was counted. Based on the obtained result, the insect entrance inhibition rate was calculated from the following equation: […]

[2] = system: mosquitoes (Culex pipiens pallens); experiment: Test Example 2: mosquito entrance inhibition in treated cup, overnight luring; details: 3.0 mg/cup, tacky trap in cup
[3] = system: houseflies (Musca domestica); experiment: Test Example 3: housefly entrance inhibition in treated cup; details: 100 mg/cup, powder milk and sugar lure
Meqaselia spiracularis = experiment: Test Example 4: entrance inhibition in treated cup, maggot rearing medium lure; details: 100 mg/cup, 30 minutes after setting
Clogmia albipunctata = experiment: Test Example 5: entrance inhibition in treated cup, in the dark; details: 30 mg/cup, 2 hours after setting
Tineola bisselliella = experiment: Test Example 6: entrance inhibition in treated carton with wool muslin; details: Tineola bisselliella female adults; 1 mg/cup (carton with wool muslin)
Source text: Insect entrance inhibition rate (%)={(number of insects attracted into the non-treated section−number of insects attracted into the treated section)/number of insects attracted into the non-treated section}×100 A lower end of a 4.5 cm×4.5 cm×4.5 cm carton was cut out to form a 0.5 cm×4.5 cm entrance of insects. A filter paper (2 cm×2 cm) impregnated with an acetone-diluted solution of the test substance was placed in the carton, and a 1 cm×1 cm piece of wool muslin was laid on said filter paper. This carton was set at a corner of a nylon gauze-made cage (20 cm×20 cm×30 cm), and a carton containing a filter paper not treated with hyssop oil and having wool muslin laid thereon was set at the diagonally opposite corner of the cage. About 60 female adults of Tineola bisselliella one to 2 days old after emergence were released in the cage, and the number of the insects which entered the cartons was counted. The test was conducted on a two-replication system.

Compound `CCN(CC)C(=O)c1cccc(C)c1` [DEET, N,N-diethyl-m-toluamide] has an Entrance inhibition rate [1] of 38%, an Entrance inhibition rate [2] of −10% and an Entrance inhibition rate [3] of 34%. For the same compound, the Entrance inhibition rate (Meqaselia spiracularis) was 34%, the Entrance inhibition rate (Clogmia albipunctata) was 50% and the Entrance inhibition rate (Tineola bisselliella) was 9.5%.
